Source: patent US9328122B2, “7-substituted Hanfangichin B derivative, and preparation method and use thereof” (HANGZHOU BENSHENG PHARMACEUTICAL CO., LTD., priority 2012, dated 2016)
≈ marks a conversion by molar mass, not a printed value.

Tests used:
[1] = tested on: H9 (acute lymphoblastic leukemia) cells; test: MTT cell growth inhibition, leukemia cells; format: cell-based, human; settings: Homo sapiens, H9, 72 h, MTT; for IC50: read-out: IC50; for IC90: read-out: IC90
From the text: (§1) Leukemia cell lines: leukemia cell lines: K562adr (drug-resistant, chronic myeloid leukemia, CML), NB4 (acute promyelocytic leukemia, AML), Kasumi-1 (acute myeloid leukemia M2 type, AML-M2), Jurkat (acute lymphoblastic leukemia, ALL), all of which were donated by Cancer Research Institute of Zhejiang University, China; and H9 (acute lymphoblastic leukemia, ALL), which was purchased from China Center for Type Culture Collection.
(§2) Reagents: The standard sample of fangchinoline (FAN) was purchased from Ci Yuan Biotechnology Co., Ltd., Shaanxi, China; and the 7-substituted fangchinoline derivatives according to the present invention.
(§3) 6000 well-growing leukemia cells were obtained and inoculated into wells of a 96-well cell culture plate. The culture medium was a RPMI-1640 cell culture medium containing 10% fetal bovine serum. After adding the 7-substituted fangchinoline derivatives of different concentrations the next day and mixing uniformly, the plate was placed in a carbon dioxide cell incubator (5% CO2) at 37° C. and incubating for 72 hours. Then the viable cell concentration was determined by the MTT method.

[2] = tested on: Jurkat (acute lymphoblastic leukemia) cells; test: MTT cell growth inhibition, leukemia cells; format: cell-based, human; settings: Homo sapiens, Jurkat, 72 h, MTT; for IC50: read-out: IC50; for IC90: read-out: IC90
From the text: as §1, §2, §3

[3] = tested on: Kasumi-1 (acute myeloid leukemia M2 type) cells; test: MTT cell growth inhibition, leukemia cells; format: cell-based, human; settings: Homo sapiens, Kasumi-1, 72 h, MTT; for IC50: read-out: IC50; for IC90: read-out: IC90
From the text: as §1, §2, §3

[4] = tested on: RPMI 8226 (multiple myeloma) cells; test: MTT cell growth inhibition, multiple myeloma cells; format: cell-based, human; settings: Homo sapiens, RPMI 8226, 72 h, MTT; for IC50: read-out: IC50; for IC90: read-out: IC90
Protocol: Myeloma cell lines: RPMI8226 (multiple myeloma), purchased from Fuxiang Bio-tech Co. Ltd., Shanghai, China.
6000 well-growing cells were obtained and inoculated into wells of a 96-well cell culture plate. The culture medium was a RPMI-1640 cell culture medium containing 10% fetal bovine serum. After adding the 7-substituted fangchinoline derivatives of different concentrations the next day and mixing uniformly, the plate was placed in a carbon dioxide cell incubator (5% CO2) at 37° C. and incubated for 72 hours. Then the viable cell concentration was determined by the MTT method.

[5] = tested on: RKO (human colon adenocarcinoma) cells; test: MTT cell growth inhibition, solid tumor cells; format: cell-based; settings: Homo sapiens, RKO, 72 h, MTT; for IC50: read-out: IC50; for IC90: read-out: IC90
From the text: (§4) Hep-2 (laryngeal carcinoma), A549 (human lung cancer), CaES-17 (esophageal cancer cell), PC-3 (prostate cancer), CNE (nasopharyngeal carcinoma cell) and SK-OV-3 (ovarian cancer cell), all of which were purchased from China Center For Type Culture Collection; RKO (human colon adenocarcinoma cell), MGC-803 (human gastric cancer cell), MG-63 (osteosarcoma), and U87-MG (malignant glioma cell), all of which were purchased from Fuxiang Bio-tech Co. Ltd., Shanghai, China; PANC-1 (pancreatic cancer), Becap37 (human breast cancer cell), Hela (human cervical cancer cell) and Hep G2 (human liver cancer cell), all of which were donated by Cancer Research Institute of Zhejiang University, China.
(§5) 6000 well-growing human solid tumor cells were obtained and inoculated into wells of a 96-well cell culture plate. The culture medium was DMEM High Glucose cell culture medium containing 10% fetal bovine serum. The plate was placed in a carbon dioxide cell incubator (5% CO2) at 37° C. and incubated for 24 hours. After added with 7-substituted fangchinoline derivatives of different concentration and mixing uniformly, the plate was placed in a carbon dioxide cell incubator (5% CO2) at 37° C. and incubated for 72 hours. Then the viable cell concentration was determined by the MTT method.

[6] = tested on: MGC-803 (human gastric cancer) cells; test: MTT cell growth inhibition, solid tumor cells; format: cell-based; settings: MGC-803, 72 h, MTT; for IC50: read-out: IC50; for IC90: read-out: IC90
From the text: as §4, §5

[7] = tested on: Becap-37 (human breast cancer) cells; test: MTT cell growth inhibition, solid tumor cells; format: cell-based; settings: for IC50 / IC90: Homo sapiens, Becap-37, 72 h, MTT; for IC50: read-out: IC50; for IC90: read-out: IC90
From the text: as §4, §5

[8] = tested on: MG-63 (osteosarcoma) cells; test: MTT cell growth inhibition, solid tumor cells; format: cell-based; settings: Homo sapiens, MG-63, 72 h, MTT; for IC50: read-out: IC50; for IC90: read-out: IC90
From the text: as §4, §5

[9] = tested on: A549 (human lung cancer) cells; test: MTT cell growth inhibition, solid tumor cells; format: cell-based; settings: Homo sapiens, A549, 72 h, MTT; for IC50: read-out: IC50; for IC90: read-out: IC90
From the text: as §4, §5

[10] = tested on: Hep G2 (human liver cancer) cells; test: MTT cell growth inhibition, solid tumor cells; format: cell-based; settings: for IC50 / IC90: Homo sapiens, HepG2, Hep G2, 72 h, MTT; for IC50: read-out: IC50; for IC90: read-out: IC90
From the text: as §4, §5

[11] = tested on: U87-MG (malignant glioma) cells; test: MTT cell growth inhibition, solid tumor cells; format: cell-based; settings: Homo sapiens, U-87 MG, U87-MG, 72 h, MTT; for IC50: read-out: IC50; for IC90: read-out: IC90
From the text: as §4, §5

[12] = tested on: Hela (human cervical cancer) cells; test: MTT cell growth inhibition, solid tumor cells; format: cell-based; settings: Homo sapiens, Hela, 72 h, MTT; for IC50: read-out: IC50; for IC90: read-out: IC90
From the text: as §4, §5

[13] = tested on: Hep-2 (laryngeal carcinoma) cells; test: MTT cell growth inhibition, solid tumor cells; format: cell-based; settings: Homo sapiens, Hep-2, 72 h, MTT; for IC50: read-out: IC50; for IC90: read-out: IC90
From the text: as §4, §5

tumor = test: Antitumor activity compared with fangchinoline, overall statement; format: cell-based; settings: tumor type not specified
[14] = tested on: CNE (nasopharyngeal carcinoma) cells; test: MTT cell growth inhibition, solid tumor cells; format: cell-based, human; settings: for IC50 / IC90: Homo sapiens, CNE, 72 h, MTT; for IC50: read-out: IC50; for IC90: read-out: IC90
From the text: as §4, §5

[15] = tested on: SK-OV-3 (ovarian cancer) cells; test: MTT cell growth inhibition, solid tumor cells; format: cell-based, human; settings: Homo sapiens, SK-OV-3, 72 h, MTT; for IC50: read-out: IC50; for IC90: read-out: IC90
From the text: as §4, §5

[16] = tested on: PC-3 (prostate cancer) cells; test: MTT cell growth inhibition, solid tumor cells; format: cell-based, human; settings: Homo sapiens, PC-3, 72 h, MTT; for IC50: read-out: IC50; for IC90: read-out: IC90
From the text: as §4, §5

[17] = tested on: PANC-1 (pancreatic cancer) cells; test: MTT cell growth inhibition, solid tumor cells; format: cell-based, human; settings: for IC50 / IC90: Homo sapiens, PANC-1, 72 h, MTT; for IC50: read-out: IC50; for IC90: read-out: IC90
From the text: as §4, §5

[18] = relative to fangchinoline, Table 2

| Structure (SMILES) | IC50 [1] | IC90 [1] | IC50 [2] | IC90 [2] | IC50 [3] | IC90 [3] | IC50 [4] | IC90 [4] | IC50 [5] | IC90 [5] | IC50 [6] | IC90 [6] | IC50 [7] | IC90 [7] | IC50 [8] | IC90 [8] | IC50 [9] | IC90 [9] | IC50 [10] | IC90 [10] | further results |
| --- | --- | --- | --- | --- | --- | --- | --- | --- | --- | --- | --- | --- | --- | --- | --- | --- | --- | --- | --- | --- | --- |
| COc1ccc2cc1Oc1ccc(cc1)C[C@H]1c3cc(c(OC)cc3CCN1C)Oc1c(OS(=O)(=O)c3ccccc3)c(OC)cc3c1[C@H](C2)N(C)CC3 [BS-FC-104] | 1 µg/mL (≈ 1.34 µM) | 4.99 µg/mL (≈ 6.66 µM) | 0.45 µg/mL (≈ 0.601 µM) | 3.03 µg/mL (≈ 4.05 µM) | 0.95 µg/mL (≈ 1.27 µM) | 3.68 µg/mL (≈ 4.91 µM) | 0.12 µg/mL (≈ 0.16 µM) | 0.5 µg/mL (≈ 0.668 µM) | 0.74 µg/mL (≈ 0.988 µM) | 1.76 µg/mL (≈ 2.35 µM) | 1.36 µg/mL (≈ 1.82 µM) | 4.28 µg/mL (≈ 5.72 µM) | 1.92 µg/mL (≈ 2.56 µM) | 3.94 µg/mL (≈ 5.26 µM) | 2.71 µg/mL (≈ 3.62 µM) | 3.88 µg/mL (≈ 5.18 µM) | 1.57 µg/mL (≈ 2.1 µM) | 3.94 µg/mL (≈ 5.26 µM) | 1.44 µg/mL (≈ 1.92 µM) | 3.9 µg/mL (≈ 5.21 µM) | IC50 [11]: 1.63 µg/mL (≈ 2.18 µM); IC90 [11]: 4.5 µg/mL (≈ 6.01 µM); IC50 [12]: 1 µg/mL (≈ 1.34 µM); IC90 [12]: 3.42 µg/mL (≈ 4.57 µM); IC50 [13]: 3.18 µg/mL (≈ 4.25 µM); IC90 [13]: 10.2 µg/mL (≈ 13.6 µM); antitumor activity compared with that of fangchinoline (tumor): significantly superior; IC50 [14]: 2.5 µg/mL (≈ 3.34 µM); IC90 [14]: 4.9 µg/mL (≈ 6.54 µM); IC50 [15]: 1.88 µg/mL (≈ 2.51 µM); IC90 [15]: 3.79 µg/mL (≈ 5.06 µM); IC50 [16]: 2.5 µg/mL (≈ 3.34 µM); IC90 [16]: 5.51 µg/mL (≈ 7.36 µM); IC50 [17]: 2.01 µg/mL (≈ 2.68 µM); IC90 [17]: 10.8 µg/mL (≈ 14.4 µM) |
| COc1ccc2cc1Oc1ccc(cc1)C[C@H]1c3cc(c(OC)cc3CCN1C)Oc1c(OCC(O)CNCC3CC3)c(OC)cc3c1[C@H](C2)N(C)CC3 (some centres unmarked) [BS-FC-405] | 1.45 µg/mL (≈ 1.97 µM) | 2.9 µg/mL (≈ 3.94 µM) | 0.56 µg/mL (≈ 0.761 µM) | 0.99 µg/mL (≈ 1.35 µM) | 0.76 µg/mL (≈ 1.03 µM) | 1.75 µg/mL (≈ 2.38 µM) | 0.05 µg/mL (≈ 0.0679 µM) | 0.44 µg/mL (≈ 0.598 µM) | 0.46 µg/mL (≈ 0.625 µM) | 0.92 µg/mL (≈ 1.25 µM) | 0.88 µg/mL (≈ 1.2 µM) | 3.59 µg/mL (≈ 4.88 µM) | 0.74 µg/mL (≈ 1.01 µM) | 1.88 µg/mL (≈ 2.55 µM) | 0.96 µg/mL (≈ 1.3 µM) | 1.7 µg/mL (≈ 2.31 µM) | 1.94 µg/mL (≈ 2.64 µM) | 5.89 µg/mL (≈ 8 µM) | 0.71 µg/mL (≈ 0.965 µM) | 1.7 µg/mL (≈ 2.31 µM) | anti-Becap37 activity increase over fangchinoline [7, 18]: ~3 fold; anti-Hep G2 activity increase over fangchinoline [10, 18]: ~3 fold; IC50 [11]: 0.7 µg/mL (≈ 0.951 µM); IC90 [11]: 1.41 µg/mL (≈ 1.92 µM); IC50 [12]: 1.25 µg/mL (≈ 1.7 µM); IC90 [12]: 2 µg/mL (≈ 2.72 µM); IC50 [13]: 1.67 µg/mL (≈ 2.27 µM); IC90 [13]: 4.81 µg/mL (≈ 6.54 µM); antitumor activity compared with that of fangchinoline (tumor): significantly superior; IC50 [14]: 0.8 µg/mL (≈ 1.09 µM); IC90 [14]: 1.7 µg/mL (≈ 2.31 µM); anti-CNE activity increase over fangchinoline [14, 18]: ~3 fold; IC50 [15]: 1.54 µg/mL (≈ 2.09 µM); IC90 [15]: 3.5 µg/mL (≈ 4.76 µM); IC50 [16]: 2.53 µg/mL (≈ 3.44 µM); IC90 [16]: 3.69 µg/mL (≈ 5.01 µM); IC50 [17]: 1.14 µg/mL (≈ 1.55 µM); IC90 [17]: 3.34 µg/mL (≈ 4.54 µM); anti-PANC-1 activity increase over fangchinoline [17, 18]: ~3 fold |
